Patent US6610694B1, “Condensed pyridazine compounds, their production and use” (Takeda Chemical Industries, Ltd., priority 1998, dated 2003)

Assays:
guinea pig eosinophils = assay: Suppression of LTB4-induced chemotactic reaction in guinea pig eosinophils; format: cell-based
Experimental: 1) Preparation of Guinea Pig Eosinophils
To male Hartley guinea pigs, 2 ml of equine serum (Bio-Whittaker, Inc.) was intraperitoneally administered once weekly for 8 consecutive weeks. At 48 hours after final administration, 75 ml of physiological saline was intraperitoneally injected, after which the saline was recovered and centrifuged at 400×g for 5 minutes. The resulting sediment was suspended in 5 ml of Percoll solution (density (d)=1.07) and layered on top of the multiple layers of different densities of Percoll solution (density(d)=1.112, 5 ml; d=1.095, 10 ml; d=1.090, 10 ml; d=1.085, 5 ml), followed by centrifugation at 1,000×g for 25 minutes (20° C.). The cell layer formed at the interface between densities 1.112 and 1.095 was collected. Erythrocytes present in the collected cell sediment were removed by hypotonic treatment (suspended in water for […]).
The cell sediment was washed 3 times with Hanks' solution containing 10 mM Hepes (Dojin Kagaku) (Hanks-Hepes) and suspended in a Hanks-Hepes solution containing 2% human serum albumin (Wako Pure Chemical Industry or Sigma) (Hanks-Hepes-HSA) to a final concentration of 5.56×10^6 cells/ml. Eosinophil purity was 90%, viability being over 98%.
2) Determination of Chemotactic Reaction Suppression
To a 24-well petri dish, which serves as a lower chamber, 600 μl of Hanks-Hepes-HSA solution containing LTB4 (final concentration 10^−8 M, Cascade Biochemical Ltd.), was transferred, followed by incubation at 37° C. for 30 minutes in a carbon dioxide incubator. Separately, 200 μl of eosinophil suspension (5×10^6 cells/ml), previously incubated at 37 C for 15 minutes, was added to Chemotaxicell (polycarbonate membrane, pore size 3 μm, thickness 10 μm), which serves as an upper chamber, after the upper chamber was attached to the 24-well petri dish. After 2 hours of reaction in the CO2 incubator, the Chemotaxicell was removed; 60 μl of a 2% (w/v) solution of EDTA in physiological saline was added to the liquid in the lower chamber. After the mixture was on cooled ice, the cells migrating into the lower chamber were counted using a blood cell counter [Coulter Counter (trade name)]. The test drug, dissolved in N,N-dimethyl formamide (DMF), was added to both the upper and lower chambers to a final concentration of 10^-5 M.
Chemotactic reaction suppression rate=[1−(number of migrating cells in the presence of drug/number of migrating cells in the absence of drug).]×100 Equation 2
Suppression rates of LTB4-induced chemotactic reaction by test substances (1×10^−5 M) were calculated using the above equation.
In the same manner as Experimental Example 2a, the percent suppression of LTB4-induced chemotactic reactions by various example compounds was calculated.

[1] = test system: histamine-induced skin reactions in guinea pigs; assay: Effect on histamine-induced skin reactions in guinea pigs (skin vascular permeability); format: in vivo, guinea pig; details: oral 3 mg/kg
Experimental: Effect on Histamine-induced Skin Reactions in Guinea Pigs
Male Hartley guinea pigs weighing about 500 g were used. After the dorsal hair was shaved under ether anesthesia, 1 ml of a 2.5% pontamine sky blue solution was injected intravenously administered, and then 0.1 ml of histamine at 3 μg/ml was injected intradermally into 2 sites (left and right) in the back. Thirty minutes after the injection of histamine, the animals were killed by bleeding and the skin was removed. Two perpendicular diameters (mm) of each blue spot on the inside of the skin were measured and multiplied; the mean for the two products was taken as the microvascular permeability index. Test compounds were suspended in a 5% gum arabic solution and orally administered in a volume of 0.2 ml/100 g body weight 1 hour before histamine administration. Animals in the control group received the same volume of a 5% gum arabic solution. The suppression rate of the sample for the title reaction was calculated using Equation 1, and the results are given in Table 1.
Inhibition (%) of histamine-induced skin reactions=100×(1−vascular permeability index in the presence of drug/vascular permeability index in control group) Equation 1
In the same manner as Experimental Example 1a, the effects of various example compounds on histamine-induced skin reactions in guinea pigs were examined.

[2] = LTB4-induced chemotaxis, same manner as Experimental Example 2a (1×10^−5 M), Table 4
[3] = same manner as Experimental Example 1a, Table 3
[4] = LTB4 10^−8 M-induced chemotaxis, test substance 1×10^−5 M, Table 2
[5] = 1 hour before intradermal histamine, Table 1

Compound	melting point [°C]	Suppression rate (%) (guinea pig eosinophils; [2])	Suppression (%) of histamine-induced skin vascular permeability elevation, oral administration at 3 mg/kg [1, 3] [%]	Suppression rate (%) (guinea pig eosinophils; [4])	Suppression (%) of histamine-induced skin vascular permeability elevation, oral administration at 3 mg/kg [1, 5] [%]
CC(C)(C)c1nnc2ccc(OCCCN3CCC(OC(c4ccccc4)c4ccccc4)CC3)nn12 [Example 13a, 3-tert-Butyl-6-[3-[4-(diphenylmethoxy)piperidino]propoxy][1,2,4]triazolo[4.3-b]pyridazine]				41	79
O=C(O)c1nnc2ccc(NCCCN3CCC(OC(c4ccccc4)c4ccccc4)CC3)nn12 [Example 22a, 6-[3-[4-(Diphenylmethoxy)piperidino]propylamino][1,2,4]triazolo[4,3-b]pyridazine-3-carboxylic Acid]	102 to 104			50	86

More lines, main results first:

melting point [°C]	Compound	Suppression rate (%) (guinea pig eosinophils; [2])	Suppression (%) of histamine-induced skin vascular permeability elevation, oral administration at 3 mg/kg [1, 3] [%]	Suppression rate (%) (guinea pig eosinophils; [4])	Suppression (%) of histamine-induced skin vascular permeability elevation, oral administration at 3 mg/kg [1, 5] [%]
137 to 139	CCOC(=O)Cn1nc2ccc(NCCCN3CCC(OC(c4ccccc4)c4ccccc4)CC3)nn2c1=O [Example 7b, ethyl 2-[6-[3-[4-(Diphenylmethoxy)piperidino]propylamino]-3-oxo[1,2,4]triazolo[4,3-b]pyridazin-2(3H)-yl]acetate]	26	89		
162	CCOC(=O)C(C)(C)n1nc2ccc(NCCCN3CCC(OC(c4ccccc4)c4ccccc4)CC3)nn2c1=O.Cl [Example 8b, Ethyl 2-[6-[3-[4-(Diphenylmethoxy)piperidino]propylamino]-3-oxo[1,2,4]triazolo[4,3-b]pyridazin-2(3H)-yl]-2-methylpropionate Hydrochloride]	57	74		
124 to 127	c1ccc(C(OC2CCN(CCCCCCNc3ccc4nncn4n3)CC2)c2ccccc2)cc1 [Example 10a, 6-[6-[4-(Diphenylmethoxy)piperidino]hexylamino][1,2,4]triazolo[4,3-b]pyridazine]			60	91
